Results: patent US20150344426A1, “COMPOUNDS AND THERAPEUTIC USES THEREOF” (ALZHEIMER'S INSTITUTE OF AMERICA, INC., priority 2012, published 2015)

What was measured:
[1] = Stability in mouse liver microsomal preparations; assay type: in vitro ADME; conditions: liver microsomes, with and without 1 mM NADPH (not said which), read-out: Mouse Liver Microsomes t1/2
Method: (§1) Relative stability of Example Compound Nos. 1 through 60 in mouse plasma and mouse liver microsomal preparations.
(§2) Certain Example Compounds were each added to a final concentration of 1 μM to 1 mL of each of mouse plasma and mouse liver microsomal preparations (with and without 1 mM NADPH). Stability assays were run in duplicate and were sampled at 0, 5, 15, 30, 60 and 120 minutes as follows: one hundred microliter aliquots of samples were removed at the specified sampling times, and the reaction was quenched with 400 μL of acetonitrile.
(§3) Samples were analyzed by HPLC-ESI-MS/MS by measuring the peak area of both the starting Example Compound and parent compound (i.e., either Parent Compound A or Parent Compound B) that were created by removal of the Prodrug Moiety (as defined in Section 6 herein).

[2] = Kinetic solubility (iSol Explorer method); assay type: physicochemical; conditions: system solution buffer (pION), aqueous buffer, kinetic from dmso stock
Method: Kinetic solubility was determined using the iSol Explorer method (pION Inc.; Woburn, Mass.). Certain Example Compounds were dissolved in dimethylsulfoxide (DMSO; >99.9% ACS spectrophotometric grade; Sigma-Aldrich, St. Louis, Mo.) to a concentration of 100 mM. The DMSO stock was diluted 1:100 in system solution buffer (pION Inc. Wobum Mass.) that had been adjusted to the desired pH (5.0, 6.8, and 7.4) with either HCl or NaOH. The diluted samples in the desired buffer were incubated for 15 minutes at room temperature and filtered using 96-well plate with 0.25 mm glass fiber/1.2 μm polyethersulfone filter bottoms (Corning, Inc.; Corning, N.Y.). The filtrate is transferred to a second 96-well plate and read on a SpectraMAX 190 (Molecular Devices; Sunnyvale, Calif.) scanning from 190 to 498 nm. The data are analyzed with Sol Explorer Command version 2.2, (pION Inc. Woburn, Mass.) and the concentration reported in molarity and/or mass per volume.

[3] = Stability assessment / semi-quantitative hygroscopicity in a relative humidity (RH) chamber; assay type: physicochemical; conditions: solid in RH chamber; morphology and parent:prodrug composition
Method: “ND” in Table 2 refers to “No Data”. Purity was determined by HPLC. Melting point was determined by differential scanning calorimetry (“DSC”), and semi-quantitative hygroscopicity was determined in a relative humidity (“RH”) chamber.

[4] = Stability in mouse plasma; assay type: in vitro ADME; conditions: read-out: Mouse Plasma t1/2
Method: as §1, §2, §3

[5] = system: HT1080 human fibrosarcoma cancer cells; test: Anti-tumor activity in HT1080 human fibrosarcoma xenograft with twice daily dosing; assay type: in vivo; conditions: for animals with no detectable tumors by the end of the study: cohort of ten
Method: One million HT1080 cells were implanted subcutaneously in the right flank of female nude mice (Crl:NU-Fox1^nu). When the median tumor volume (MTV) was approximately 209 mm^3, mice were randomized into four cohorts of ten animals. […] All cohorts were dosed twice daily for 7 days. The mice were observed daily for mortality and signs of toxicity. Tumor volumes and body weights were determined from Days 1 to 22. The results are depicted in FIG. 4.

[6] = pH 5.0, 15 minutes at room temperature
[7] = pH 6.8, 15 minutes at room temperature
[8] = pH 7.4, 15 minutes at room temperature
[9] = Example Compounds 44/45 study, 8 mg/kg twice daily for 7 days, Day 9
[10] = Example Compounds 44/45 study, 8 mg/kg twice daily for 7 days, end of the study, Day 22
[11] = Example Compounds 44/45 study, 12 mg/kg twice daily for 7 days, Day 9
[12] = Example Compounds 44/45 study, 12 mg/kg twice daily for 7 days, end of the study, Day 22

half-life at 1 µM [1] [min] | solubility at 15 min [2, 6] [µM] | solubility at 15 min [2, 7] [µM] | solubility at 15 min [2, 8] [µM] | half-life at 1 µM [4] [min] | SMILES | Stability at 60° C. and 75% RH [3] | Stability at 40° C. and 75% RH [3] | also measured
< 5 | 397 | 393 | 399 |  | CC(=O)OC[n+]1cccc(CNC(=O)Nc2ccc(OCCc3ccccc3-c3ccccc3)cc2)c1 [Example 34, 1-[(Acetyloxy)methyl]-3-{[({4-[2-(biphenyl-2-yl)ethoxy]phenyl}carbamoyl)amino]methyl}pyridinium] |  |  | 
 | 601 | 547 | 524 |  | CC(C)(C)C(=O)OC[n+]1cccc(CNC(=O)Nc2ccc(OCCc3ccccc3-c3ccccc3)cc2)c1 [Example 36, 3-{[({4-[2-(Biphenyl-2-yl)ethoxy]phenyl}carbamoyl)amino]methyl}-1-{[(2,2-dimethylpropanoyl)oxy]methyl}pyridinium] | Oiled out at 1 hr No change in composition |  | 
399 |  |  |  | 53.5 | CC(C)C(OC(=O)C(C)(C)C)[n+]1cccc(CNC(=O)Nc2ccc(OCCc3ccccc3-c3ccccc3)cc2)c1 (stereo not drawn) [Example 40, 3-{[({4-[2-(Biphenyl-2-yl)ethoxy]phenyl}carbamoyl)amino]methyl}-1-{1-[(2,2-dimethylpropanoyl)oxy]-2-methylpropyl}pyridinium] | Approximately 5:95 parent to prodrug moiety observed at 14 days | No change in morphology at 14 days, only prodrug observed | 
< 5 |  |  |  | < 5 | CCCC(=O)OC[n+]1cccc(CNC(=O)Nc2ccc(OCCc3ccccc3-c3ccccc3)cc2)c1 [Example 41, 3-{[({4-[2-(Biphenyl-2-yl)ethoxy]phenyl}carbamoyl)amino]methyl}-1-[(butanoyloxy)methyl]pyridinium] | Deliquesced at 24 hr No change in composition | No change in morphology at 14 days, only prodrug observed | 
59.1 |  |  |  | 29.8 | CC(C)C(OC(=O)c1ccccc1)[n+]1cccc(CNC(=O)Nc2ccc(OCCc3ccccc3-c3ccccc3)cc2)c1 (stereo not drawn) [Example 43, 1-[1-(Benzoyloxy)-2-methylpropyl]-3-{[({4-[2-(biphenyl-2-yl)ethoxy]phenyl}carbamoyl)amino]methyl} pyridinium] | Approximately 5:95 parent to prodrug observed at 14 days | No change in morphology at 14 days, only prodrug observed | 

SMILES | half-life at 1 µM [1] [min] | solubility at 15 min [2, 6] [µM] | solubility at 15 min [2, 7] [µM] | solubility at 15 min [2, 8] [µM] | half-life at 1 µM [4] [min] | Stability at 60° C. and 75% RH [3] | Stability at 40° C. and 75% RH [3] | also measured
CC(C)C(=O)OC[n+]1cccc(CNC(=O)Nc2ccc(OCCc3ccccc3-c3ccccc3)cc2)c1 [Example 44, 3-{[({4-[2-(Biphenyl-2-yl)ethoxy]phenyl}carbamoyl)amino]methyl}-1-{[(2-methylpropanoyl)oxy]methyl}pyridinium] | < 5 |  |  |  | < 5 | Deliquesced at 5 days approximately 50:50 parent to prodrug | No change in morphology at 14 days, circa 7:93 parent to prodrug | animals with no detectable tumors by the end of the study ([5]; Example Compounds 44/45 study, 8 mg/kg): One; animals with no detectable tumors by the end of the study ([5]; Example Compounds 44/45 study, 12 mg/kg): three; MTV decrease [5, 9]: 62%; tumor regression [5, 9]: 62%; MTV increase [5, 10]: 16%; tumor growth inhibition [5, 10]: 95%; MTV decrease [5, 11]: 67%; tumor regression [5, 11]: 67%; MTV decrease [5, 12]: 67%; tumor regression [5, 12]: 67%; anti-tumor activity in the HT1080 xenograft model (summary statement) ([5]; administered orally, twice daily, all doses tested): significant anti-tumor activity; Tolerability ([5]; xenograft mice, all doses tested, orally twice daily): well tolerated
